Experiment [1] concerns the target T1, purified integrase (Human immunodeficiency virus type 1 group M subtype B, UniProt P12497).
T1 construct: Recombinant integrase (0.26 ng) was incubated with the beads
The experiment is described as follows: HIV-Integrase binding assay (competition with radiolabeled integrase inhibitor). To be noted: competition with [3H]-labeled integrase inhibitor; Cheng and Prusoff. The procedure: HIV-Integrase binding assay. In this assay competitive binding experiments with test compounds and a radiolabeled integrase inhibitor (compound A) are performed against purified integrase. […] Binding reactions were carried out in 96-well white polystyrene assay plates (Corning, #3600). The following was added sequentially to each well: 20 μl of water or 20μl of human serum (Cellgro Cat# 35-060-CL), 5 μl of serially diluted compound (in 50% DMSO/50% integrase SPA buffer), 5 μl of [^3H]-compound I (6,000 cpm/μl in SPA buffer) and 20 μl of bead/DNA/enzyme complex. The plates were shaken for 2 hours and then allowed to sit at room temperature without shaking overnight. The [^3H]-compound I binding was measured using a Topcount scintillation counter. Cheng and Prusoff equations were used to convert the inhibition of compound 1 binding into the corresponding Ki value. Activity equal to A refers to a compound having Ki=0.001 to 0.003 μM while B and C denote compounds having Ki=0.003 to 0.05 μM and Ki≧0.050 μM respectively.

The test system of experiment [2] is recombinant NL-Rluc virus. The experiment is described as follows: Inhibition of HIV replication. Format: cell-based. To be noted: three serum conditions described, the one tabulated is not stated.
Experiment [3] addresses T2, HIV-integrase (Human immunodeficiency virus type 1 group M subtype B, UniProt P12497).
T2 construct: Recombinant integrase (0.26 ng) was incubated with the beads
The experiment is described as follows: HIV-Integrase Inhibition Activity (SPA strand transfer assay). Format: biochemical. Particulars: recombinant integrase, SPA beads, P33 labeled target DNA. The method, then:
HIV-Integrase InhibitionActivity. To evaluate in-vitro activity against HIV-integrase, 5 pmole of biotin labeled substrate DNA was bound to 100 μg of Streptavidin coated PVT SPA beads (Amersham Pharmacia Biotech). Recombinant integrase (0.26 ng) was incubated with the beads for 90 min at 37° C. Unbound enzyme was removed by washing the complex followed by addition of inhibitors and 0.1 fmol of P33 labeled target DNA. The reaction was stopped by adding EDTA to a final concentration of 10 mM. Samples were counted in TopCountNXT (Packard) and the CPM was used as a measure of integration. The reaction condition was as described in A. Engelman and R. Craigie, J. Virol 69, 5908-5911 (1995). The sequences of substrate and target DNA were described in Nucleic Acid Research 22, 1121-1122 (1994). Activity equal to A refers to a compound having IC50=0.001 to 0.01 μM B=0.01-0.1, and C≧0.1 μM respectively.

Where [4] appears, read: Human immunodeficiency virus 1, read-out: Antiviral Activity, NL-RLuc virus.

The structures appear in SMILES notation. Like-named read-outs stand apart in the source and are kept apart here.

By Ki is commonly meant the dissociation constant of the complex between target and ligand, obtained from inhibition or displacement. A low value points to higher affinity. In general, IC50 refers to the midpoint of a concentration-inhibition curve.

`CN(C)S(=O)(=O)N1CCC2(CC1)OCCCn1c2nc(C(=O)NCc2ccc(F)cc2)c(O)c1=O` [Example 61]: the Ki in experiment [1] was 1 to 3 nM. For the same compound, the EC50 in experiment [2] (setting [4]) lay within 1 to 10 nM.

In turn, `COC(=O)N1CCC2(CC1)OCCCn1c2nc(C(=O)NCc2ccc(F)cc2-n2ncnc2C)c(O)c1=O` [Example 64] came in with a Ki in experiment [1] of 3 to 50 nM. Besides, the EC50 in experiment [2] (setting [4]) is 1 to 10 nM.

Turning to `CC(=O)N1CCC2(CC1)COCCn1c2nc(C(=O)NCc2ccc(F)cc2-n2ncnc2C)c(O)c1=O` [Example 69], the Ki in experiment [1] was 3 to 50 nM. The EC50 in experiment [2] (setting [4]) was above 100 nM.

On to `CN(C)C(=O)C(=O)N1CCC2(CC1)NCCn1c2nc(C(=O)NCc2ccc(F)cc2)c(O)c1=O` [Example 34, 1-(2-(Dimethylamino)-2-oxoacetyl)-N-(4-fluorobenzyl)-3′-hydroxy-4′-oxo-4′,6′,7′,8′-tetrahydrospiro[piperidine-4,9′-pyrazino[1,2-a]pyrimidine]-2′-carboxamide], for which the Ki in experiment [1] was in the range of 3 to 50 nM. Also, the EC50 in experiment [2] (setting [4]) fell in the range of 10 to 100 nM.

Take `Cc1ncnn1-c1cc(F)ccc1CNC(=O)c1nc2n(c(=O)c1O)CCCOC21CCN(C(=O)C(=O)N(C)C)CC1` [Example 74, 1-(2-(Dimethylamino)-2-oxoacetyl)-N-(4-fluoro-2-(5-methyl-1H-1,2,4-triazol-1-yl)benzyl)-3′-hydroxy-4′-oxo-4′,6′,7′,8′-tetrahydrospiro[piperidine-4,10′-pyrimido[2,1-c][1,4]oxazepine]-2′-carboxamide]: the Ki in experiment [1] lay in the range of 3 to 50 nM. Moreover, the EC50 in experiment [2] (setting [4]) was above 100 nM.

In the case of `Cc1ncnn1-c1cc(F)ccc1CNC(=O)c1nc2n(c(=O)c1O)CCOCC21CCN(C(=O)N(C)C)CC1` [Example 71], the Ki in experiment [1] is 3 to 50 nM. In addition, in experiment [2] (setting [4]), the EC50 lay in the range of 10 to 100 nM.

Compound `Cc1nnc(C(=O)N2CCC3(CC2)OCCCn2c3nc(C(=O)NCc3ccc(F)cc3-n3ncnc3C)c(O)c2=O)o1` [Example 67] came in with a Ki in experiment [1] of 3 to 50 nM. Besides, the EC50 in experiment [2] (setting [4]) lay in the range of 10 to 100 nM.

Compound `Cc1nnc(C(=O)N2CCC3(C2)OCCn2c3nc(C(=O)NCc3ccc(F)cc3)c(O)c2=O)o1` (stereo not drawn) [Example 44, N-(4-Fluorobenzyl)-3-hydroxy-1′-(5-methyl-1,3,4-oxadiazole-2-carbonyl)-4-oxo-6,7-dihydro-4H-spiro[pyrimido[2,1-c][1,4]oxazine-9,3′-pyrrolidine]-2-carboxamide] returned a Ki in experiment [1] of 1 to 3 nM. Also, the EC50 in experiment [2] (setting [4]) was in the range of 10 to 100 nM.

Regarding `COC(=O)N1CCC2(CC1)COCCn1c2nc(C(=O)NCc2ccc(F)cc2-n2ncnc2C)c(O)c1=O` [Example 72], in experiment [1], the Ki is 3 to 50 nM. Further, the EC50 in experiment [2] (setting [4]) fell in the range of 10 to 100 nM.

In experiment [1], `CC(=O)N1CCC2(CC1)OCCCn1c2nc(C(=O)NCc2ccc(F)cc2)c(O)c1=O` [Example 57, 1-Acetyl-N-(4-fluorobenzyl)-3′-hydroxy-4′-oxo-4′,6′,7′,8′-tetrahydrospiro-[piperidine-4,10′-pyrimido[2,1-c][1,4]oxazepine]-2′-carboxamide] registered a Ki of 1 to 3 nM. In addition, in experiment [2] (setting [4]), the EC50 fell in the range of 1 to 10 nM.

For `COC(=O)N1CCC2(CC1)OCCCn1c2nc(C(=O)NCc2ccc(F)cc2)c(O)c1=O` [Example 58, Methyl 2′-(4-fluorobenzylcarbamoyl)-3′-hydroxy-4′-oxo-4′,6′,7′,8′-tetrahydrospiro[piperidine-4,10′-pyrimido[2,1-c][1,4]oxazepine]-1-carboxylate], the Ki in experiment [1] is 1 to 3 nM. Also, the EC50 in experiment [2] (setting [4]) fell in the range of 1 to 10 nM.

In experiment [1], `CC(=O)N1CCC2(CC1)OCCCn1c2nc(C(=O)NCc2ccc(F)cc2-n2ncnc2C)c(O)c1=O` [Example 63] had a Ki of 3 to 50 nM. In experiment [2] (setting [4]), the EC50 lay in the range of 10 to 100 nM.

For `Cc1nnc(C(=O)N2CCC3(CC2)NCCn2c3nc(C(=O)NCc3ccc(F)cc3)c(O)c2=O)o1` [Example 35, N-(4-Fluorobenzyl)-3′-hydroxy-1-(5-methyl-1,3,4-oxadiazole-2-carbonyl)-4′-oxo-4′,6′,7′,8′-tetrahydrospiro[piperidine-4,9′-pyrazino[1,2-a]pyrimidine]-2′-carboxamide], the Ki in experiment [1] was in the range of 3 to 50 nM. Moreover, in experiment [2] (setting [4]), the EC50 was 10 to 100 nM.

`Cc1ncnn1-c1cc(F)ccc1CNC(=O)c1nc2n(c(=O)c1O)CCCOC21CCN(S(=O)(=O)N(C)C)CC1` [Example 66]: in experiment [1], the inhibition constant Ki lay within 3 to 50 nM. Besides, in experiment [2] (setting [4]), the EC50 lay in the range of 1 to 10 nM.

With `Cc1ncnn1-c1cc(F)ccc1CNC(=O)c1nc2n(c(=O)c1O)CCCOC21CCN(S(C)(=O)=O)CC1` [Example 62], the Ki in experiment [1] lay within 3 to 50 nM. Besides, the EC50 in experiment [2] (read-out: Antiviral Activity, NL-RLuc virus) was 10 to 100 nM.

With `CN1CCN(S(=O)(=O)c2cc(F)ccc2CNC(=O)c2nc3n(c(=O)c2O)CCCOC32CCN(C(=O)OCc3ccccc3)CC2)CC1` [Example 50], the IC50 in experiment [3] was in the range of 10 to 100 nM. In addition, in experiment [2] (setting [4]), the EC50 is 10 to 100 nM.

On to `O=C(NCc1ccc(F)cc1)c1nc2n(c(=O)c1O)CCOCC21CCN(C(=O)OCc2ccccc2)CC1` [Example 54], for which the IC50 in experiment [3] was in the range of 10 to 100 nM. Also, the EC50 in experiment [2] (setting [4]) lay in the range of 10 to 100 nM.

Consider `O=C(NCc1ccc(F)cc1-n1cncn1)c1nc2n(c(=O)c1O)CCOC21CCN(C(=O)c2ccccc2)CC1` [Example 9], for which the IC50 in experiment [3] lay within 10 to 100 nM. In experiment [2] (setting [4]), the EC50 fell in the range of 1 to 10 nM.

Regarding `O=C(NCc1ccc(F)cc1)c1nc2n(c(=O)c1O)CCOC21CCN(C(=O)c2ccccc2)CC1` [Example 10], the IC50 in experiment [3] is 10 to 100 nM. Further, the EC50 in experiment [2] (setting [4]) was in the range of 1 to 10 nM.

Consider `Cc1ccc(F)cc1S(=O)(=O)N1CCC2(CC1)OCCn1c2nc(C(=O)NCc2ccc(F)cc2-n2ncnc2C)c(O)c1=O` [Example 21], for which the IC50 in experiment [3] was 10 to 100 nM. Moreover, the EC50 in experiment [2] (setting [4]) is 1 to 10 nM.

For `COC(=O)C(=O)N1CCC2(CC1)OCCn1c2nc(C(=O)NCc2ccc(F)cc2)c(O)c1=O` [Example 28, Methyl 2-(2′-(4-fluorobenzylcarbamoyl)-3′-hydroxy-4′-oxo-6′,7′-dihydro-4′H-spiro[piperidine-4,9′-pyrimido[2,1-c][1,4]oxazine]-1-yl)-2-oxoacetate], in experiment [3], the IC50 fell in the range of 1 to 10 nM. In addition, the EC50 in experiment [2] (setting [4]) fell in the range of 10 to 100 nM.

Consider `CS(=O)(=O)N1CCC2(CC1)OCCn1c2nc(C(=O)NCc2ccc(F)cc2-n2cncn2)c(O)c1=O` [Example 7], for which the IC50 in experiment [3] lay within 1 to 10 nM. Besides, in experiment [2] (setting [4]), the EC50 was 1 to 10 nM.

As for `Cc1ncnn1-c1cc(F)ccc1CNC(=O)c1nc2n(c(=O)c1O)CCOC21CCN(C(=O)OCc2ccccc2)C1` (stereo not drawn) [Example 37, Benzyl 2-(4-fluoro-2-(5-methyl-1H-1,2,4-triazol-1-yl)benzylcarbamoyl)-3-hydroxy-4-oxo-6,7-dihydro-4H-spiro[pyrimido[2,1-c][1,4]oxazine-9,3′-pyrrolidine]-1′-carboxylate], in experiment [3], the IC50 is 10 to 100 nM. In addition, the EC50 in experiment [2] (setting [4]) lay in the range of 10 to 100 nM.

As to `CN(C)C(=O)N1CCC2(CC1)OCCn1c2nc(C(=O)NCc2ccc(F)cc2-n2cncn2)c(O)c1=O` [Example 5], the IC50 in experiment [3] lay in the range of 1 to 10 nM. In addition, in experiment [2] (setting [4]), the EC50 is 1 to 10 nM.

Take `Cc1ncn(-c2cc(F)ccc2CNC(=O)c2nc3n(c(=O)c2O)CCOC32CCN(S(=O)(=O)c3cc(F)ccc3C)CC2)n1` [Example 20]: the IC50 in experiment [3] lay in the range of 1 to 10 nM. Also, in experiment [2] (setting [4]), the EC50 was in the range of 1 to 10 nM.

With `CCOC(=O)N1CCC2(CC1)OCCn1c2nc(C(=O)NCc2ccc(F)cc2-n2cnc(C)n2)c(O)c1=O` [Example 33, Ethyl 2′-(4-fluoro-2-(3-methyl-1H-1,2,4-triazol-1-yl)benzylcarbamoyl)-3′-hydroxy-4′-oxo-6′,7′-dihydro-4′H-spiro[piperidine-4,9′-pyrimido[2,1-c][1,4]oxazine]-1-carboxylate], in experiment [3], the IC50 was in the range of 1 to 10 nM. The EC50 in experiment [2] (setting [4]) was in the range of 1 to 10 nM.

Regarding `Cc1ncnn1-c1cc(F)ccc1CNC(=O)c1nc2n(c(=O)c1O)CCOC21CCN(C(=O)C(=O)N(C)C)CC1` [Example 27, 1-(2-(Dimethylamino)-2-oxoacetyl)-N-(4-fluoro-2-(5-methyl-1H-1,2,4-triazol-1-yl)benzyl)-3′-hydroxy-4′-oxo-6′,7′-dihydro-4′H-spiro[piperidine-4,9′-pyrimido[2,1-c][1,4]oxazine]-2′-carboxamide], the IC50 in experiment [3] lay within 10 to 100 nM. In addition, the EC50 in experiment [2] (setting [4]) is above 100 nM.

For the compound `O=C(NCc1ccc(F)cc1)c1nc2n(c(=O)c1O)CCCCC21CCN(C(=O)OCc2ccccc2)CC1` [Example 56], the IC50 in experiment [3] lay within 10 to 100 nM. In addition, the EC50 in experiment [2] (setting [4]) fell in the range of 10 to 100 nM.

With `CC1CN(S(=O)(=O)c2cc(F)ccc2CNC(=O)c2nc3n(c(=O)c2O)CCCOC32CCN(C(=O)OCc3ccccc3)CC2)CC(C)N1` (stereo not drawn) [Example 49], the IC50 in experiment [3] is 10 to 100 nM. Also, the EC50 in experiment [2] (setting [4]) lay in the range of 10 to 100 nM.

`Cc1ccc(S(=O)(=O)N2CCC3(CC2)OCCn2c3nc(C(=O)NCc3ccc(F)cc3-n3nc(C)nc3C)c(O)c2=O)cc1` [Example 17]: the half-inhibitory concentration (IC50) in experiment [3] was in the range of 10 to 100 nM. For the same compound, the EC50 in experiment [2] (setting [4]) was in the range of 1 to 10 nM.
